Test results published in patent US20040258773A1, “Composition and methods for treating subjects with hyperglycemia” (priority 2004, published 2004).

Tested on: 3T3-L1 adipocytes
Assay: Glucose uptake activity assay (2-deoxy-D-[3H]glucose uptake)
Assay type: cell-based
Conditions: 12-well plates, 15 min incubation, FIG. 1
Protocol: Glucose uptake activity assay. Glucose uptake activity was analyzed by measuring the uptake of 2-deoxy-D-[^3H] glucose as described previously (Sakoda, H, et al. (1999) Diabetes 48: 1365-1371; Garcia de Herreros, A. & Birnbaum, M. J. (1989) J. Biol. Chem. 264: 19994-19999). Briefly, confluent 3T3-L1 adipocytes grown in 12-well plates were washed twice with serum-free DMEM and incubated with 1 mL of the same medium at 37° C. for 2 h. The cells were washed 3 times with Krebs-Ringer-Hepes (KRP) buffer and incubated with 0.9 mL KRP buffer at 37° C. for 30 min. Insulin and/or BE were then added and adipocytes were incubated at 37° C. for 15 min. Glucose uptake was initiated by the addition of 0.1 ml, KRP buffer and 3.7×10^7 Bq/L 2-deoxy-D-[^3H] glucose and 1 mmol/L glucose as final concentrations. After 10 min, glucose uptake was terminated by washing the cells 3 times with cold PBS. The cells were lysed with 0.7 mL of 1% Triton X-100 at 37° C. for 20 min. The radioactivity retained by the cell lysates was determined by a scintillation counter. Nonspecific glucose uptake was measured at a glucose concentration of 100 mmol/L. Assay data were statistically analyzed using the paired Student's t-test, with P<0.05 set as the significant difference level.

Substance: insulin: Bovine insulin from Sigma Chemical, positive control
- stimulation of glucose uptake in 3T3-L1 adipocytes: could stimulate glucose uptake
